Data from patent US7947741B2, “Use and administration of bacterial efflux pump inhibitors” (Mpex Pharmaceuticals, Inc., priority 2004, dated 2011).
In brackets after ≈: the same amount, converted by molar mass. Like-named read-outs stand apart in the source and are kept apart here.

Tests used:
[1] = system: P. aeruginosa PAM1723 (MexAB-OprM overexpressed); format: cell-based, Pseudomonas aeruginosa; conditions: for MIC, No Pentamidine / MIC, Pentamidine (40 μg/ml): PAM1723 (MexAB-OprM overexpressed); for MIC, Pentamidine (40 μg/ml): in the presence of pentamidine 40 μg/ml
[2] = system: P. aeruginosa PAM1154 (MexAB-OprM deleted); format: cell-based, Pseudomonas aeruginosa
[3] = system: P. aeruginosa PAM1626 (lacks all the three efflux pumps); assay: microbe, parasite or virus in culture; format: cell-based, Pseudomonas aeruginosa; conditions: for Levofloxacin MIC in the presence of inhibitor: PAM1626; for MIC: Pseudomonas aeruginosa, read-out: MIC* (MIC for the efflux pump inhibitor)
[4] = system: P. aeruginosa PAM1020 (wt, basal level of MexAB-OprM); assay: Levofloxacin potentiation checkerboard assay (broth microdilution); format: cell-based, Pseudomonas aeruginosa; conditions: PAM1020; for MIC: Pseudomonas aeruginosa, inhibitor alone, read-out: MIC* (MIC for the efflux pump inhibitor)
Protocol: (§1) Stock solutions were further diluted, according to the needs of a particular assay, in Mueller Hinton Broth (MHB). Stock solution was stored at −80° C.
(§2) The checkerboard assay was performed in microtiter plates. […] The result of these manipulations is that each well of the microtiter plate contains a unique combination of concentrations of the two agents. The assay was performed in MHB with a final bacterial inoculum of 5×10^5 CFU/ml (from an early-log phase culture). Microtiter plates were incubated during 20 h at 35° C. and were read using a microtiterplate reader (Molecular Devices) at 650 nm as well as visual observation using a microtiter plate reading mirror.
(§3) The test organisms used was PAM1020, which is a wild type strain of P. aeruginosa expressing the basal level of MexAB-OprM, as well as PAM1723, PAM1738, and PAM1753, overexpressing the MexAB-OprM, MexCD-OprJ, and MexEF-OprN pump, respectively.

[5] = system: P. aeruginosa PAM1753 (nfxC, overexpressing MexEF-OprN); assay: as above; format: cell-based, Pseudomonas aeruginosa; conditions: for Levofloxacin MIC in the presence of inhibitor: PAM1753; for MIC: Pseudomonas aeruginosa, read-out: MIC* (MIC for the efflux pump inhibitor)
Protocol: as §1, §2, §3

[6] = system: P. aeruginosa PAM1738 (nfxB, overexpressing MexCD-OprJ); assay: microbe, parasite or virus in culture; format: cell-based, Pseudomonas aeruginosa; conditions: for Levofloxacin MIC in the presence of inhibitor: PAM1738; for MIC: Pseudomonas aeruginosa, read-out: MIC* (MIC for the efflux pump inhibitor)
Protocol: as §1, §2, §3

[7] = system: P. aeruginosa PAM1723 (nalB, overexpressing MexAB-OprM); assay: microbe, parasite or virus in culture; format: cell-based, Pseudomonas aeruginosa; conditions: for Levofloxacin MIC in the presence of inhibitor: PAM1723; for MIC: Pseudomonas aeruginosa, read-out: MIC* (MIC for the efflux pump inhibitor), PAM1723, inhibitor alone
Protocol: as §1, §2, §3
Efflux pump inhibitory activity of several commercially available diamidine analogs was evaluated using the checkerboard assay of Example 1 against the strain of P. aeruginosa overexpressing the MexAB-OprM efflux pump.

[8] = target: MexAB-OprM-mediated efflux of Leu-Nap, PAM1723 cells (Pseudomonas aeruginosa, UniProt P52002); assay: Leu-Nap accumulation assay; format: cell-based; conditions: Leu-Nap 100 μg/ml
[9] = intravenous infusion; cited from earlier work

MexAB-OprM-mediated efflux of Leu-Nap, PAM1723 cells, sequence (Q51487 18-485): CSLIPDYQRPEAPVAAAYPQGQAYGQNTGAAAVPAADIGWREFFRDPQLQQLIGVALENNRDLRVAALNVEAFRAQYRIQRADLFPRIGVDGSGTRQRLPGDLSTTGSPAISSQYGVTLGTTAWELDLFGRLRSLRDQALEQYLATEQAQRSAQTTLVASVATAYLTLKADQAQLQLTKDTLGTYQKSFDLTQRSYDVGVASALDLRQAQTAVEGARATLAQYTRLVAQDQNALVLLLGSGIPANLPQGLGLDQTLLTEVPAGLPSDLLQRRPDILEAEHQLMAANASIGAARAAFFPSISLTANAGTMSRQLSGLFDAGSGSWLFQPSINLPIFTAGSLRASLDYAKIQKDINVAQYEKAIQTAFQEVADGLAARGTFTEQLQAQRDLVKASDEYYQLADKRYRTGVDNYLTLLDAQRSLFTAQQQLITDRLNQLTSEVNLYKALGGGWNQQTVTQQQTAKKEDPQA
MexAB-OprM-mediated efflux of Leu-Nap, PAM1723 cells, sequence (P52002 whole entry, the tested form may be a part): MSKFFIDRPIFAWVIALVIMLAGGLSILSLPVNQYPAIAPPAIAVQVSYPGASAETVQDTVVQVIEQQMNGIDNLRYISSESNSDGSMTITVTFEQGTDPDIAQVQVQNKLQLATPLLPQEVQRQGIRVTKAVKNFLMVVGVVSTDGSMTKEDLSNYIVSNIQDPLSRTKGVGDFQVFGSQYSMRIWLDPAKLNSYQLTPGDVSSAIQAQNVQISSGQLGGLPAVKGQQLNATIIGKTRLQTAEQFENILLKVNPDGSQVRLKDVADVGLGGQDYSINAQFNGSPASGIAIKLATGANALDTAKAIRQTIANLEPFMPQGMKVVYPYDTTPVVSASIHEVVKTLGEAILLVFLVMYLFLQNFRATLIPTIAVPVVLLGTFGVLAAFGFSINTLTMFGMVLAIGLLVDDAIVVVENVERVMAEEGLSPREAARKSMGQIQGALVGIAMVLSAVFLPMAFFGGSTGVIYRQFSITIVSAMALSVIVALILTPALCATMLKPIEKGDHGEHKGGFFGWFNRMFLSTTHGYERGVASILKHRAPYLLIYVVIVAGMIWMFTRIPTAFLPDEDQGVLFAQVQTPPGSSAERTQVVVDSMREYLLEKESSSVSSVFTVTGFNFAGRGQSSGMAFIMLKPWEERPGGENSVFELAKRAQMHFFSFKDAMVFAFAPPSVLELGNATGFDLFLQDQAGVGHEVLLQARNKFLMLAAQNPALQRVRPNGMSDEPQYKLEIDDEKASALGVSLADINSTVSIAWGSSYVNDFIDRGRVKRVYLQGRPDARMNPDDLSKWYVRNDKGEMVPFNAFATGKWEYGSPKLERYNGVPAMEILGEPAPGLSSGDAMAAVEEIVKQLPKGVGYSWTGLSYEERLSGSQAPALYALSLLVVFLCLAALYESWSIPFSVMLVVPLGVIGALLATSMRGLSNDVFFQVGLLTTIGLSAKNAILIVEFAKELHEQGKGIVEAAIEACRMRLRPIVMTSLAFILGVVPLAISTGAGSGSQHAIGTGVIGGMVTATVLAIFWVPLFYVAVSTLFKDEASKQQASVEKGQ
MexAB-OprM-mediated efflux of Leu-Nap, PAM1723 cells, sequence (P52477 24-383, further chain): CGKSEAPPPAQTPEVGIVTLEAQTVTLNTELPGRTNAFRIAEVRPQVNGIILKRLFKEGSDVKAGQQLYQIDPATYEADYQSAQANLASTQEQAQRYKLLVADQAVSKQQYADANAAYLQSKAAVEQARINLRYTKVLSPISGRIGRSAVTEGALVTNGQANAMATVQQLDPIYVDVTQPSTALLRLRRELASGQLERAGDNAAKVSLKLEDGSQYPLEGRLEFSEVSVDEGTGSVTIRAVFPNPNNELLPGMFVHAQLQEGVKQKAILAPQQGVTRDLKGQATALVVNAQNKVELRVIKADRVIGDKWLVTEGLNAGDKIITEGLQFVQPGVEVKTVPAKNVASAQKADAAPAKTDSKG

Compound	MIC, No Pentamidine [1]	MIC, Pentamidine (40 μg/ml) [1]	decrease of the MIC by pentamidine ([1]; PAM1723, pentamidine 40 μg/ml)	MIC, No Pentamidine [2]	Levofloxacin MIC in the presence of inhibitor ([3]; inhibitor 1.25 μg/ml)	MIC [3]	Levofloxacin MIC in the presence of inhibitor ([4]; inhibitor 1.25 μg/ml)	Levofloxacin MIC in the presence of inhibitor ([4]; inhibitor 2.5 μg/ml)	Levofloxacin MIC in the presence of inhibitor ([4]; inhibitor 5 μg/ml)	Levofloxacin MIC in the presence of inhibitor ([4]; inhibitor 10 μg/ml)	MIC [4]	Levofloxacin MIC in the presence of inhibitor ([5]; inhibitor 1.25 μg/ml)	Levofloxacin MIC in the presence of inhibitor ([5]; inhibitor 2.5 μg/ml)	MIC [5]	Levofloxacin MIC in the presence of inhibitor ([7]; inhibitor 1.25 μg/ml)	Levofloxacin MIC in the presence of inhibitor ([7]; inhibitor 2.5 μg/ml)	Levofloxacin MIC in the presence of inhibitor ([7]; inhibitor 5 μg/ml)	Levofloxacin MIC in the presence of inhibitor ([7]; inhibitor 10 μg/ml)	Levofloxacin MIC in the presence of inhibitor ([7]; inhibitor 20 μg/ml)	MIC [7]	also measured
CC[C@H]1OC(=O)[C@H](C)[C@@H](O[C@H]2C[C@@](C)(OC)[C@@H](O)[C@H](C)O2)[C@H](C)[C@@H](O[C@@H]2O[C@H](C)C[C@H](N(C)C)[C@H]2O)[C@](C)(O)C[C@@H](C)CN(C)[C@H](C)[C@@H](O)[C@]1(C)O [Azithro, azithromycin]	64 µg/mL (≈ 85.4 µM)	1	64 fold	0.5 µg/mL (≈ 0.668 µM)																	
O=C(N[C@H](CO)[C@H](O)c1ccc([N+](=O)[O-])cc1)C(Cl)Cl [Cm, chloramphenicol]	128 µg/mL (≈ 396 µM)	8	16 fold	1 µg/mL (≈ 3.09 µM)																	
N=C(N)c1ccc(OCCCOc2ccc(C(=N)N)cc2Br)c(Br)c1 [Dibromopropamidine, dibromopropamidine]					0.0075 µg/mL	5 µg/mL (≈ 10.6 µM)	0.25 µg/mL	0.25 µg/mL	0.125 µg/mL	0.06 µg/mL	80 µg/mL	2 µg/mL	1 µg/mL	20 µg/mL	2 µg/mL	1 µg/mL	0.5 µg/mL	0.125 µg/mL	0.06 µg/mL	80 µg/mL	Levofloxacin MIC in the presence of inhibitor ([3]; inhibitor 2.5 μg/ml): 0.007 µg/mL; Levofloxacin MIC in the presence of inhibitor ([4]; inhibitor 20 μg/ml): 0.03 µg/mL; Levofloxacin MIC in the presence of inhibitor ([4]; inhibitor 40 μg/ml): 0.03 µg/mL; Levofloxacin MIC in the presence of inhibitor ([5]; inhibitor 5 μg/ml): 0.5 µg/mL; Levofloxacin MIC in the presence of inhibitor ([5]; inhibitor 10 μg/ml): 0.125 µg/mL; Levofloxacin MIC in the presence of inhibitor ([6]; inhibitor 1.25 μg/ml): 0.5 µg/mL; Levofloxacin MIC in the presence of inhibitor ([6]; inhibitor 2.5 μg/ml): 0.25 µg/mL; Levofloxacin MIC in the presence of inhibitor ([6]; inhibitor 5 μg/ml): 0.125 µg/mL; Levofloxacin MIC in the presence of inhibitor ([6]; inhibitor 10 μg/ml): 0.06 µg/mL; Levofloxacin MIC in the presence of inhibitor ([6]; inhibitor 20 μg/ml): 0.03 µg/mL; Levofloxacin MIC in the presence of inhibitor ([6]; inhibitor 40 μg/ml): 0.03 µg/mL; MIC [6]: 80 µg/mL; Levofloxacin MIC in the presence of inhibitor ([7]; inhibitor 40 μg/ml): 0.06 µg/mL; inhibitor concentration at which rate of Leu-Nap uptake in PAM1723 and PAM1626 is the same (complete inhibition of efflux) [8]: 20 µg/mL
CC[C@H]1OC(=O)[C@H](C)[C@@H](O[C@H]2C[C@@](C)(OC)[C@@H](O)[C@H](C)O2)[C@H](C)[C@@H](O[C@@H]2O[C@H](C)C[C@H](N(C)C)[C@H]2O)[C@](C)(O)C[C@@H](C)C(=O)[C@H](C)[C@@H](O)[C@]1(C)O [Erm, erythromycin]		64	4 fold	8 µg/mL (≈ 10.9 µM)																	
N=C(N)c1ccc(OCCCCCCOc2ccc(C(=N)N)cc2)cc1 [Hexamidine, hexamidine]					0.007 µg/mL	2.5 µg/mL (≈ 7.05 µM)	0.125 µg/mL	0.125 µg/mL	0.03 µg/mL	0.007 µg/mL	20 µg/mL	2 µg/mL	2 µg/mL	20 µg/mL	2 µg/mL	1 µg/mL	1 µg/mL	0.125 µg/mL	0.015 µg/mL	40 µg/mL	Levofloxacin MIC in the presence of inhibitor ([5]; inhibitor 5 μg/ml): 1 µg/mL; Levofloxacin MIC in the presence of inhibitor ([5]; inhibitor 10 μg/ml): 0.25 µg/mL; Levofloxacin MIC in the presence of inhibitor ([6]; inhibitor 1.25 μg/ml): 0.5 µg/mL; Levofloxacin MIC in the presence of inhibitor ([6]; inhibitor 2.5 μg/ml): 0.5 µg/mL; Levofloxacin MIC in the presence of inhibitor ([6]; inhibitor 5 μg/ml): 0.25 µg/mL; Levofloxacin MIC in the presence of inhibitor ([6]; inhibitor 10 μg/ml): 0.06 µg/mL; Levofloxacin MIC in the presence of inhibitor ([6]; inhibitor 20 μg/ml): 0.015 µg/mL; Levofloxacin MIC in the presence of inhibitor ([6]; inhibitor 40 μg/ml): 0.007 µg/mL; MIC [6]: 80 µg/mL; inhibitor concentration at which rate of Leu-Nap uptake in PAM1723 and PAM1626 is the same (complete inhibition of efflux) [8]: 20 µg/mL
N=C(N)c1ccc(/N=N/Nc2ccc(C(=N)N)cc2)cc1 [MP 601206]															2 µg/mL	2 µg/mL	1 µg/mL	1 µg/mL	0.5 µg/mL	80 µg/mL	Levofloxacin MIC in the presence of inhibitor ([7]; inhibitor 40 μg/ml): 0.06 µg/mL
Cl.Cl.N=C(N)c1cccc(NC(=O)Nc2cccc(C(=N)N)c2)c1 [MP 601319]															2 µg/mL	2 µg/mL	2 µg/mL	2 µg/mL	1 µg/mL	> 80 µg/mL	Levofloxacin MIC in the presence of inhibitor ([7]; inhibitor 40 μg/ml): 0.25 µg/mL; Levofloxacin MIC in the presence of inhibitor ([7]; inhibitor 80 μg/ml): 0.125 µg/mL
N=C(N)c1ccc(OCCCOc2ccc(C(=N)N)cc2)cc1 [Propamidine, propamidine]					0.015 µg/mL	10 µg/mL (≈ 32 µM)	0.25 µg/mL	0.125 µg/mL	0.125 µg/mL	0.06 µg/mL	40 µg/mL	4 µg/mL	2 µg/mL	5 µg/mL	2 µg/mL	2 µg/mL	1 µg/mL	0.5 µg/mL	0.25 µg/mL	40 µg/mL	Levofloxacin MIC in the presence of inhibitor ([3]; inhibitor 2.5 μg/ml): 0.007 µg/mL; Levofloxacin MIC in the presence of inhibitor ([3]; inhibitor 5 μg/ml): 0.007 µg/mL; Levofloxacin MIC in the presence of inhibitor ([4]; inhibitor 20 μg/ml): 0.03 µg/mL; Levofloxacin MIC in the presence of inhibitor ([6]; inhibitor 1.25 μg/ml): 0.5 µg/mL; Levofloxacin MIC in the presence of inhibitor ([6]; inhibitor 2.5 μg/ml): 0.5 µg/mL; Levofloxacin MIC in the presence of inhibitor ([6]; inhibitor 5 μg/ml): 0.25 µg/mL; Levofloxacin MIC in the presence of inhibitor ([6]; inhibitor 10 μg/ml): 0.125 µg/mL; Levofloxacin MIC in the presence of inhibitor ([6]; inhibitor 20 μg/ml): 0.015 µg/mL; MIC [6]: 40 µg/mL; inhibitor concentration at which rate of Leu-Nap uptake in PAM1723 and PAM1626 is the same (complete inhibition of efflux) [8]: 160 µg/mL
NC[C@H]1O[C@H](O[C@H]2[C@H](O)[C@@H](O[C@H]3O[C@H](CO)[C@@H](O)[C@H](N)[C@H]3O)[C@H](N)C[C@@H]2N)[C@H](N)C[C@@H]1O [Tb, tobramycin]	0.06 µg/mL (≈ 0.128 µM)	0.03		0.03 µg/mL (≈ 0.0642 µM)																	decrease of the MIC by pentamidine [1]: almost no effect
N=C(N)c1ccc(OCCCCCOc2ccc(C(=N)N)cc2)cc1 [pentamidine isethionate, 4,4′-diamidino-diphenoxypentane di(β-hydroxyethanesulfonate)]																					plasma levels during the first two hours following an intravenous infusion [9]: one-twentieth of peak levels
